Among the test systems are 786-0; CAKI-1; CCRF-CEM; DU-145; HCC 2998; HCT-116; HCT-15; HT-29; LOX IMVI; MDA-N; NCI-H460; SF-295; SF-539; SK-MEL-5; U-251; UACC-257; SNB-19; SNB-75; UACC-62; BT-549.
What all share (experiment): NCI anticancer screen, dose series, 48 h

From ChEMBL document CHEMBL1201862, “PubChem BioAssay data set” (2004) come the findings set out here.

Structures are written as SMILES.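 Values below derive from 48-hour exposures of cells grown in 96-well plates, with endpoints linearly interpolated between the two concentrations bracketing the appropriate inhibition level. GI50 marks 50% less growth.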 Active and inactive are the calls of the source. Cut-off read from the data, not from the text of the source: active = GI50 up to about 1.1 µM and inactive = higher.

On to `CC1=NN(c2cccc(Cl)c2)C2(C1=Cc1ccccc1)C(Cl)C(=O)N2c1nc2ccccc2s1` (stereo unspecified), for which the GI50 in the assay with 786-0 is 17.5 µM (inactive); with CAKI-1, 17.7 µM (inactive); with CCRF-CEM it was 22.1 µM (inactive); in the assay on DU-145, 15 µM (inactive); with HCC 2998 it was 17.3 µM (inactive); in the assay with HCT-116, 16.7 µM (inactive). Also, the GI50 in the assay on HCT-15 was 15.9 µM; in the assay with HT-29, 19.8 µM (inactive); in the assay with LOX IMVI, 23.7 µM (inactive); with MDA-N it was 19.8 µM (inactive); with NCI-H460 it was 15.2 µM (inactive); in the assay with SF-295, 20.2 µM (inactive). Moreover, the GI50 with SF-539 is 33.2 µM (inactive); with SK-MEL-5 it was 13.3 µM (inactive); in the assay with U-251, 14.1 µM (inactive); with UACC-257, 24 µM (inactive).

Regarding `O/N=C/[C@H]1COC2(CCCCC2)O1`, the GI50 with 786-0 is > 100 µM (inactive); in the assay on CCRF-CEM it was > 100 µM (inactive); with DU-145, > 100 µM (inactive); in the assay with HCT-116, > 100 µM (inactive); in the assay on HCT-15, over 100 µM; in the assay on HT-29 it was > 100 µM (inactive). The GI50 in the assay with LOX IMVI, with MDA-N, in the assay with SF-295, with SK-MEL-5, with SNB-19 and in the assay on SNB-75 was > 100 µM (inactive) throughout. In addition, the GI50 in the assay on U-251, in the assay with UACC-257 and in the assay with UACC-62 was > 100 µM (inactive) each time.

As to `OC(c1ccsc1)c1cc2ccccc2s1` (stereo unspecified), the GI50 in the assay with 786-0, in the assay with CAKI-1, with CCRF-CEM, in the assay on DU-145, with HCC 2998 and in the assay with HCT-116 was > 10 µM (inactive) in each case. Moreover, the GI50 in the assay on HCT-15 was over 10 µM; in the assay with HT-29 it was > 10 µM (inactive); in the assay on LOX IMVI it was > 10 µM (inactive); in the assay on MDA-N it was > 10 µM (inactive); in the assay with NCI-H460, > 10 µM (inactive); in the assay on SF-295 it was > 10 µM (inactive). In addition, the GI50 in the assay on SF-539, with SK-MEL-5, in the assay on SNB-19, in the assay with SNB-75, in the assay with U-251 and with UACC-257 was > 10 µM (inactive) each time. The GI50 in the assay on UACC-62 is > 10 µM (inactive).

Turning to `CCOC(=O)CCC(NC(=O)c1ccc(Oc2nc3ccc(C(F)(F)F)cc3nc2-c2ccccc2)cc1)C(=O)OCC` (stereo unspecified), the GI50 in the assay with 786-0 was 4.25 µM (inactive); in the assay on CAKI-1, 7.19 µM (inactive); with CCRF-CEM, > 100 µM (inactive); with DU-145, > 100 µM (inactive); with HCC 2998, > 100 µM (inactive); in the assay on HCT-116, 25.6 µM (inactive). Besides, the GI50 is over 100 µM in the assay on HCT-15; 5.15 µM (inactive) in the assay on HT-29; 28.6 µM (inactive) in the assay with LOX IMVI; > 100 µM (inactive) in the assay with MDA-N; 47.1 µM (inactive) with NCI-H460; 12.2 µM (inactive) in the assay on SF-295. Also, the GI50 in the assay on SF-539 was 3.01 µM (inactive); in the assay with SK-MEL-5, 45.3 µM (inactive); with SNB-19, 12.7 µM (inactive); in the assay with SNB-75, 9.46 µM (inactive); in the assay with U-251 it was 20.4 µM (inactive); in the assay on UACC-257 it was > 64.7 µM (inactive). In the assay with UACC-62, the GI50 is 23.1 µM (inactive).

As to `CCOC(=O)c1cn(C)nc1N/C(C)=C\C(=O)c1ccccc1`, the GI50 with 786-0, in the assay on BT-549, with CAKI-1, in the assay with CCRF-CEM, in the assay with DU-145 and in the assay on HCC 2998 was > 100 µM (inactive) in each case. In addition, the GI50 was over 100 µM in the assay on HCT-15; 60.1 µM (inactive) in the assay on HT-29; 90.8 µM (inactive) in the assay with LOX IMVI; > 100 µM (inactive) in the assay on NCI-H460; > 100 µM (inactive) in the assay on SF-295; 83.2 µM (inactive) in the assay on SF-539. The GI50 in the assay on SK-MEL-5, with SNB-19, with U-251, in the assay on UACC-257 and with UACC-62 was > 100 µM (inactive) in each case.

Consider `COc1cc([C@@H]2c3cc4c(cc3[C@@H](NC(=O)c3cccc([N+](=O)[O-])c3)C3COC(=O)[C@@H]32)OCO4)cc(OC)c1O` (stereo partly specified), for which the GI50 with 786-0 was 0.202 µM (active); in the assay on CAKI-1, 0.237 µM (active); in the assay with CCRF-CEM, 0.0376 µM (active); in the assay on HCC 2998, 0.608 µM (active); with HCT-116 it was 1.5 µM (inactive); with HCT-15, 1.28 µM. The GI50 with HT-29 was 1.7 µM (inactive); with LOX IMVI, 0.295 µM (active); with NCI-H460, < 0.01 µM (active); with SF-295, 0.245 µM (active); in the assay on SF-539 it was 0.294 µM (active); in the assay with SK-MEL-5, 0.452 µM (active). Besides, the GI50 in the assay with SNB-19 was 0.366 µM (active); with SNB-75 it was 1.31 µM (inactive); with U-251, 0.166 µM (active); in the assay with UACC-257 it was 6.18 µM (inactive); in the assay on UACC-62, 0.499 µM (active).

In the case of `CN(C)C(=O)C(F)(F)C(c1ccccc1Br)C1C(=O)N(C)C(=O)N(C)C1=O` (stereo unspecified), the GI50 in the assay on 786-0, in the assay on BT-549, in the assay with CAKI-1, in the assay on CCRF-CEM, with DU-145 and in the assay with HCC 2998 was > 100 µM (inactive) throughout. The GI50 is > 100 µM (inactive) with HCT-116; over 100 µM with HCT-15; > 100 µM (inactive) in the assay with LOX IMVI; > 100 µM (inactive) in the assay on NCI-H460; > 100 µM (inactive) in the assay on SF-295; > 100 µM (inactive) in the assay with SK-MEL-5. Also, the GI50 with SNB-19, in the assay on SNB-75, in the assay on U-251, in the assay on UACC-257 and with UACC-62 was > 100 µM (inactive) in each case.

Take `O/N=C/c1cc2c(cc1Br)OCO2`: the GI50 in the assay on 786-0 is > 100 µM (inactive); in the assay on CAKI-1, > 100 µM (inactive); in the assay with CCRF-CEM, > 100 µM (inactive); in the assay with HCC 2998 it was > 100 µM (inactive); in the assay with HCT-116 it was > 100 µM (inactive); with HCT-15 it was over 100 µM. For the same molecule, the GI50 in the assay with HT-29, with LOX IMVI, with NCI-H460, in the assay on SF-295, in the assay on SF-539 and in the assay on SK-MEL-5 was > 100 µM (inactive) throughout. In addition, the GI50 in the assay on SNB-19, in the assay with SNB-75, in the assay on U-251, in the assay on UACC-257 and in the assay with UACC-62 was > 100 µM (inactive) each time.

Regarding `CN(C)c1ccc(-c2[nH]c(=O)c3ccccc3[n+]2C)cc1`, the GI50 in the assay on 786-0 was > 100 µM (inactive); in the assay with CCRF-CEM, > 100 µM (inactive); in the assay with DU-145 it was > 100 µM (inactive); in the assay on HCC 2998, > 100 µM (inactive); in the assay with HCT-116 it was 93.8 µM (inactive); in the assay on HCT-15, over 100 µM. The GI50 was 63.4 µM (inactive) in the assay on HT-29; > 100 µM (inactive) in the assay on NCI-H460; > 100 µM (inactive) with SF-295; > 100 µM (inactive) in the assay with SF-539; 36.6 µM (inactive) in the assay on SK-MEL-5; > 100 µM (inactive) in the assay with SNB-19. For the same molecule, the GI50 in the assay with SNB-75 was > 100 µM (inactive); in the assay with U-251, > 100 µM (inactive); with UACC-257 it was 30.5 µM (inactive); with UACC-62 it was 47.5 µM (inactive).

Turning to `COC(=O)C(C(=O)C(=O)Nc1cccc(O)c1)c1nc2ccc(Cl)cc2nc1O` (stereo unspecified), the GI50 was > 100 µM (inactive) in the assay with 786-0; > 100 µM (inactive) in the assay with CAKI-1; > 100 µM (inactive) in the assay on CCRF-CEM; > 100 µM (inactive) in the assay on HCC 2998; > 100 µM (inactive) in the assay with HCT-116; over 100 µM in the assay with HCT-15. Moreover, the GI50 with HT-29, in the assay on LOX IMVI, with NCI-H460, with SF-295, with SF-539 and with SK-MEL-5 was > 100 µM (inactive) each time. Further, the GI50 in the assay with SNB-19 was > 100 µM (inactive); in the assay with SNB-75, 84.1 µM (inactive); in the assay with U-251, > 100 µM (inactive); in the assay with UACC-257 it was > 100 µM (inactive); in the assay with UACC-62 it was > 100 µM (inactive).

With `O=S(=O)(O)C1=C2Sc3ccccc3N=C2c2ccccc2C1`, the GI50 in the assay with 786-0 is 17.5 µM (inactive); in the assay with CAKI-1, 20.1 µM (inactive); in the assay with CCRF-CEM, 3.43 µM (inactive); with HCC 2998, 12.2 µM (inactive); with HCT-116, 15.2 µM (inactive); in the assay on HCT-15, 13.6 µM. In addition, the GI50 in the assay on HT-29 was 20.3 µM (inactive); in the assay on LOX IMVI, 12.4 µM (inactive); in the assay with NCI-H460, 19.5 µM (inactive); in the assay on SF-295, 13.8 µM (inactive); with SF-539 it was 11.9 µM (inactive); in the assay on SK-MEL-5, 13.2 µM (inactive). The GI50 with SNB-19 was 22.4 µM (inactive); in the assay on SNB-75, 18.5 µM (inactive); in the assay on U-251 it was 12.5 µM (inactive); in the assay on UACC-257 it was 17.1 µM (inactive); in the assay with UACC-62, 13.2 µM (inactive).

Take `Cc1[nH]n(-c2nc3c(c(=O)[nH]2)CCC3)c(=O)c1CCO`: the GI50 in the assay on 786-0, in the assay with CAKI-1, in the assay on CCRF-CEM, in the assay on DU-145, in the assay with HCC 2998 and in the assay with HCT-116 was > 100 µM (inactive) each time. In addition, the GI50 is over 100 µM in the assay with HCT-15; > 100 µM (inactive) in the assay on HT-29; > 100 µM (inactive) in the assay with LOX IMVI; > 100 µM (inactive) in the assay on MDA-N; > 100 µM (inactive) in the assay with NCI-H460; > 100 µM (inactive) in the assay with SF-295. In addition, the GI50 with SF-539 is > 100 µM (inactive); in the assay on SK-MEL-5 it was > 100 µM (inactive); with SNB-19 it was > 100 µM (inactive); in the assay with SNB-75, 0.0195 µM (active); in the assay on U-251 it was > 100 µM (inactive); in the assay with UACC-257 it was > 100 µM (inactive). The GI50 with UACC-62 is > 100 µM (inactive).
